Data: patent US9504729B2, “Antiangiogenic small molecules and methods of use” (The United States of America, as represented by the …, priority 2009, dated 2016)
Read-outs that look alike come from different tables or passages of the source.

Legend:
endothelial cells = experiment: Primary screening: cell-based growth HTS and tube formation HTS (bioactivity class)
Experimental: All assays were performed in clear bottom black 96-well plates. The plates were always arranged to include a column for negative controls (column 1), a column for positive controls (column 12), and 10 columns for evaluation of 80 compounds. In order to increase stringency and avoid false positives in the HTS assays, all compounds were tested at a low final concentration of 1 μM.
In summary, 1,000 cells/well were seeded in the 96-well plates described above. Cells in columns 2-12 were seeded in 10% FBS and cells in column 1 (negative control) were seeded in 0% FBS. Small molecules (80 per plate) were added in columns 2-11 at a final concentration of 1 μM (both positive and negative controls were exposed to the same percentage of DMSO in wells containing test compounds). The fluorescence emitted by every well was measured spectrophotometrically (Infinite M200, TECAN®, Mannedorf, Switzerland) every 24 hours for 5-7 days.
In summary, 20,000 cells/well were seeded on top of 50 μl of pre-gelled GELTREX® gel matrix (Invitrogen, Carlsbad, Calif.). All cells were seeded in 10% FBS. […] Small molecules (80 per plate) were added to columns 2-11 at a final concentration of 1 μM (both positive and negative controls were exposed to the same percentage of DMSO in wells containing test compounds). Plates were incubated for 5-7 hours and automatically imaged with the help of an epifluorescence microscope (Axiovert® 200M, Zeiss) equipped with a motorized stage and AxioVision® (Zeiss) software.
For hit detection, a stringent threshold (sigma 3.5) was applied to avoid false positives.

in vitro = conditions: pig
SK-ML-1 tumors [1] = experiment: SK-ML-1 tumor xenograft; conditions: 100 μl of 10 μM IP, three times a week for four weeks
PAE cells [2] = experiment: Fluorescence-release cytotoxicity assay; conditions: endothelial cells
PAE cells [3] = experiment: Growth dose response (IC50) in PAE; assay type: cell-based, porcine; conditions: Sus scrofa, read-out: Growth IC50 (M) in PAE
Text: FIG. 6: Dose response curves were constructed for all the SMs of interest using PAE cells. Data were fitted to non-linear sigmoid curves using GraphPad Prism (GraphPad Software, Inc., La Jolla, Calif.).
Dose response curves were constructed for all the SM of interest using PAE cells. Data were fitted to non-linear sigmoid curves using GraphPad Prism (GraphPad software, Inc.).

KDR(VEGFR2) = KDR(VEGFR2) (Homo sapiens, UniProt P35968); experiment: SelectScreen kinase activity profiling, KDR(VEGFR2); assay type: biochemical; conditions: VEGFR2 receptor
Text: To characterize the RTK inhibitory activity of the antiangiogenic SMs described herein, 36 compounds were chosen and screened using Invitrogen's SelectScreen® kinase activity profiling service (described on-line at tools.invitrogen.com/content.cfm?pageid=10413#selection). VEGFR1 and FGFR2 RTK inhibitory activities were studied. […] Overall, a small minority of the SMs tested had any substantial kinase inhibitory activity. This observation supports a mechanism of antiangiogenic action other than RTK inhibition for most of the SMs described herein.

PAE cells [4] = tested on: PAE cells
A549 tumors = conditions: positive control; cited from earlier work
SK-ML-1 tumors [5] = conditions: positive control; cited from earlier work

Chain of KDR(VEGFR2) (P35968 20-1356): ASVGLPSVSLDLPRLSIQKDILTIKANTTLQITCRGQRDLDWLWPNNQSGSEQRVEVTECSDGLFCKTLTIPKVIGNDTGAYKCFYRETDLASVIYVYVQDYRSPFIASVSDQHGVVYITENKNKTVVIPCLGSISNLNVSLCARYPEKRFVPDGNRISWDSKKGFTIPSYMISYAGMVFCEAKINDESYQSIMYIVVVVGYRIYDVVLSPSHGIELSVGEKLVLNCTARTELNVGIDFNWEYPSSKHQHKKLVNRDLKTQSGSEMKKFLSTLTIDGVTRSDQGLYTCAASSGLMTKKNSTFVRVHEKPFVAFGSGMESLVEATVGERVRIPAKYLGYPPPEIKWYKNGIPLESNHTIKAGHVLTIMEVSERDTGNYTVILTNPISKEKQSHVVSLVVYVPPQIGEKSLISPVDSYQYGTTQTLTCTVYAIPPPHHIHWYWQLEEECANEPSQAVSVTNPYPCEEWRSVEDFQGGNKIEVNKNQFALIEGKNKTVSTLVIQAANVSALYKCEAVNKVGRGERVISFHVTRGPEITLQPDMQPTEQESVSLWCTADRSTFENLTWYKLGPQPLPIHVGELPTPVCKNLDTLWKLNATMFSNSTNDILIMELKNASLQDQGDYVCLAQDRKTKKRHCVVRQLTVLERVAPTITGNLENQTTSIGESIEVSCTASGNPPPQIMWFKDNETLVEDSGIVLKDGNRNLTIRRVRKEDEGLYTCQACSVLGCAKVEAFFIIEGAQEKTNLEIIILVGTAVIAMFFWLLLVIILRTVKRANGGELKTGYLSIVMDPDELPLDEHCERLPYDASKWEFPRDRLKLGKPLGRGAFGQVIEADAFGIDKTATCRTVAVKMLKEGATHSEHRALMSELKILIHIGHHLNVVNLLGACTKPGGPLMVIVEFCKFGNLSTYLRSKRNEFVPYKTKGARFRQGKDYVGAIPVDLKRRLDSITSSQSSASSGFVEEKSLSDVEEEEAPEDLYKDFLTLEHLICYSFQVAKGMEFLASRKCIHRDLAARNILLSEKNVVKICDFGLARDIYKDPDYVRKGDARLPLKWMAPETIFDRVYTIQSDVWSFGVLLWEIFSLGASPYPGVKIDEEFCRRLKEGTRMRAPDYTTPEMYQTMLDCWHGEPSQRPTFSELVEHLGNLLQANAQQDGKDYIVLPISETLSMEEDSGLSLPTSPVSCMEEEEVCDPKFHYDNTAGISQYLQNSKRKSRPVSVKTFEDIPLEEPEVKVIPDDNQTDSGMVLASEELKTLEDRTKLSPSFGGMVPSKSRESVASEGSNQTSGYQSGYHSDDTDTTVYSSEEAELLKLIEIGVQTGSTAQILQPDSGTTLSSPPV

Molecule | type of inhibition (endothelial cell growth and/or tube formation) (endothelial cells) | cytotoxicity (in vitro) [%] | inhibition of tumor growth, SK-ML-1 xenograft (SK-ML-1 tumors [1]) | cytotoxicity (in words) (PAE cells [2]) | type of inhibition (endothelial cell growth and/or tube formation) (endothelial cells; 1 μM) | type of inhibition (endothelial cell growth and/or tube formation) (endothelial cells; 1 μM, listed as NSC 150117) | IC50 (PAE cells [3]; PAE cells) [M] | RTK inhibitory activity (in words) (KDR(VEGFR2)) | IC50 (PAE cells [3]; PAE) [M] | cytotoxicity (in words) (PAE cells [4]) | inhibition of growth of A549 (previously shown) (A549 tumors) | inhibition of growth of SK-ML-1 (previously shown) (SK-ML-1 tumors [5])
COc1ccc(CC2C(=O)NC(C)C(=O)N(C)C3Cc4ccc(cc4)Oc4cc(ccc4O)CC(C(=O)NC(C)C(=O)NC(C)C(=O)N2C)N(C)C3=O)cc1 (centres unmarked) [Compound 58, Deoxybouvardin or 24-hydroxy-10-(4-methoxybenzyl)-4,7,9,13,15,29-hexamethyl-22-oxa-3,6,9,12,15,29-hexaazatetracyclo-[14.12.2.2~18,21~.1~23,27~]tritriaconta-18,20,23(31),24,26,32-hexaene-2,5,8,11,14,30-hexone] | tube formation | 11.2 | potencies similar to AVASTIN® |  |  |  |  |  |  |  |  | 
Cl.O=C1C(=Cc2ccccc2)C(NC2CCCCC2)c2ccccc21 (centres unmarked) [Compound 67, 2-benzylidene-3-(cyclohexylamino)-3H-inden-1-one chloride] |  | 7.78 | potencies similar to AVASTIN® | without cytotoxicity | inhibited both endothelial cell growth and tube formation | tube formation+growth | 9.16e-11 |  |  |  |  | 
O=[As](O)(O)c1ccc(Cc2ccc([As](=O)(O)O)cc2)cc1 [Compound 69, [4-[(4-arsonophenyl)methyl]phenyl]arsonic acid] | inhibited both endothelial cell growth and tube formation | 8.26 | potencies similar to AVASTIN® |  |  |  |  | showed RTK inhibitory activity | 3.84e-10 | without cytotoxicity |  | 
AVASTIN®: monoclonal antibody directed against an isoform of VEGF, marketed under the trade name Avastin®; known antiangiogenic drug, positive control |  |  |  |  |  |  |  |  |  |  | significantly inhibit | significantly inhibit
